Test results from patent publication US10675266B2, “Compounds and methods for treating autism spectrum disorders” (BIOCODEX, priority 2008, dated 2020).

Tests used:
BALB/c mice = assay: Social investigatory behaviour of BALB/c test mice towards a juvenile DBA/2J stimulus mouse; type: in vivo; conditions: for duration of social contacts: 100, 200 and 300 mg/kg i.p. once daily for 5 days
Description: (§1) The purpose of this study was to examine the effects of stiripentol on the social behavioural in BALB/c mice compared to C57BL/6J (C57) inbred mice. The social investigatory behaviour of mice was measured by the amount of time that the “test” mouse (BALB/c and C57 mice) engaged in social contact with the “stimulus” mouse (juvenile DBA/2J mice strain).
(§2) All male mice (BALB/c, C57 and DBA/2J) were purchased from the Charles River breeding (Les Oncins-France). BALB/c and C57 mice were 8 weeks of age upon arrival at the laboratory. They were housed in temperature-controlled rooms (22±2° C.), separately by strain, with 5 mice per polycarbonate cage (type “S” cage: 265 mm L×160 mm W×140 mm H) and provided with food (A04-SAFE, France) and tap water ad libitum. Behavioral testing was conducted during the light period of a 12-h light:12-h dark cycle (lights on at 7 a.m.). The mice were used for behavioural testing starting 5-7 days after arrival at the laboratory whereas juvenile DBA/2J mice were used at 3-weeks of age and arrived at the laboratory 5 days prior testing. The experiments were conducted in accordance with the European Recommendations (directive 86/609/ECC) for the care and use of laboratory animals.
(§3) The general procedure was conducted according to the protocol described by Fishkin and Winslow (1997) Psychopharmacology (Berl) 132:335-341 with slight modifications.
Twenty-four hours prior to testing, BALB/c and C57 mice were individually housed in clear cage (type “S” cage). Food and water remained freely available. Individual housing was provided firstly to permit resident male mice an opportunity to scent mark and habituate to their home cage and, secondly to heighten the motivation of “test” mice for social interaction. All the animals were allowed to acclimate to the test room (natural lighting) for at least 1 h prior to testing which was conducted between 9 a.m. and 3 p.m.
The juvenile DBA/2J mouse was placed into BALB/c or C57 mouse cage for a 10-min observation period. The DBA/2J mouse served as “stimulus” mouse for one BALB/c mouse and one C57BL mouse. For each contact, an observer, sitting about 1 m from the cage; recorded the latency to the first contact (or approach) (in sec) towards the “stimulus” mouse and the time (in sec) that the “test” mouse spent in social investigatory behaviour. Nosing, sniffing, pawing, grooming and close following of the “stimulus” mouse by the young adult mouse were considered to be signs of social investigation. […]
(§4) All data represent the mean±standard error of mean (S.E.M.). Treatment effects on mean latency to the first contact and on mean duration of social investigation were analyzed with two-way analysis of variance (ANOVA) with the strain and the treatment as factors. […]

animal models = conditions: several animal models; cited from earlier work
SMEI patients = conditions: cited from earlier work
C57 mice = assay: Social investigatory behaviour of C57 test mice towards a juvenile DBA/2J stimulus mouse; type: in vivo
Description: as §1, §2, §3
Twenty-four hours prior to testing, BALB/c and C57 mice were individually housed in clear cage (type “S” cage). […]
The juvenile DBA/2J mouse was placed into BALB/c or C57 mouse cage for a 10-min observation period. […] For each contact, an observer, sitting about 1 m from the cage; recorded the latency to the first contact (or approach) (in sec) towards the “stimulus” mouse and the time (in sec) that the “test” mouse spent in social investigatory behaviour. […]
as §4

patients = assay: Observation of autism symptoms in patients after initiation of treatment; type: in vivo, human
Text: This observation can be confirmed by studies in animal models that mimic characteristic features of autism such as the models described by Moy S S et al, Behav. Brain Res. 176:4, 2007 and McFarlane H G et al, Genes, Brain and Behavior, 1601:1, 2007.

[1] = test system: recombinant GABA-A receptors; conditions: cited from earlier work
[2] = doses 100, 200 and 300 mg/kg i.p.; from literature (Gasior 1999; Vincent 1991); cited from earlier work

In the case of CC(C)(C)C(O)/C=C/c1ccc2c(c1)OCO2 (racemic) [Stiripentol, 1-penten-3-ol, 1-(1,3-benzodioxol)-4,4-dimethyl], the “latency to the first contact” value (BALB/c mice; 100, 200, 300 mg/kg i.p. once daily for 5 days, last dose 60 min before testing, FIG. 1) is reported as “trend for decrease”, the “duration of social contacts” value (BALB/c mice; FIG. 2) is reported as “increased duration of social contacts” and the “duration of social contacts” value (BALB/c mice; FIG. 2, listed as stiripentol) is reported as “significantly increased”. For the same compound, the sociability (BALB/c mice; sub-chronic treatment 100, 200 or 300 mg/kg i.p. x 5 days) was “enhanced the sociability”, the anticonvulsant activity (animal models) was “has shown anticonvulsant activity” and the response rate (SMEI patients; SMEI patients, 50 mg/kg/day) was “high response rate”. The “efficacy in double blind controlled clinical trials” value (SMEI patients; two double blind controlled clinical trials (Chiron, Lancet 2000)) was “high efficacy”, the sedative effects (C57 mice; 300 mg/kg i.p. once daily for 5 days) was “sedative effects in C57 mice began to appear” and the “duration of social contacts” value (C57 mice; 300 mg/kg i.p. once daily for 5 days, FIG. 2) was “significantly lowered”. The “latency to the first contact” value (C57 mice; up to 300 mg/kg i.p. once daily for 5 days, FIG. 1) was “without effects”, the autism symptoms (patients) was “resolution of autism symptoms” and the “modulation of the GABA receptor” value ([1]; Fisher, Neuropharmacology 2009) was “positive allosteric modulator”. The “potentiation by subunit subtype” value ([1]; alpha subunit subtypes compared) was “alpha 3 subtype showed the greatest potentiation” and the adverse motor effects [2] was “devoid of any adverse motor effects”.
